According to PubChem BioAssay AID256 (DTP/NCI, 2004):
Inconclusive results and toxic doses are left out.

Test system: CD2F1 mice, L1210 leukemia ip, survival T/C
Test: NCI In Vivo Anticancer Drug Screen. Data for tumor model L1210 Leukemia (intraperitoneal) in CD2F1 (CDF1) mice
Details: higher = longer survival
Summary of the method: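 Compound-dosed mice with transplantable tumor versus matched vehicle controls; endpoint ratio T/C reported.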

[1] = endpoint: mean survival time, dose: 12.5 mg/kg/injection, schedule: Q01DX009 (ip), vehicle: saline with Tween-80
[2] = endpoint: mean survival time, dose: 25.0 mg/kg/injection, schedule: Q01DX009 (ip), vehicle: saline with Tween-80
[3] = endpoint: mean survival time, dose: 50.0 mg/kg/injection, schedule: Q01DX009 (ip), vehicle: saline with Tween-80
[4] = endpoint: mean survival time, dose: 100.0 mg/kg/injection, schedule: Q01DX009 (ip), vehicle: saline with Tween-80
[5] = endpoint: median survival time, dose: 25.0 mg/kg/injection, schedule: Q01DX009 (ip), vehicle: Klucel (hydroxypropylcellulose) (HPC)
[6] = endpoint: median survival time, dose: 50.0 mg/kg/injection, schedule: Q01DX009 (ip), vehicle: Klucel (hydroxypropylcellulose) (HPC)
[7] = endpoint: median survival time, dose: 100.0 mg/kg/injection, schedule: Q01DX009 (ip), vehicle: Klucel (hydroxypropylcellulose) (HPC)
[8] = endpoint: mean survival time, dose: 100.0 mg/kg/injection, schedule: Q01DX001 (ip), vehicle: saline with Tween-80
[9] = endpoint: mean survival time, dose: 200.0 mg/kg/injection, schedule: Q01DX001 (ip), vehicle: saline with Tween-80
[10] = endpoint: mean survival time, dose: 400.0 mg/kg/injection, schedule: Q01DX001 (ip), vehicle: saline with Tween-80
[11] = endpoint: mean survival time, dose: 100.0 mg/kg/injection, schedule: Q04DX003 (ip), vehicle: saline with Tween-80
[12] = endpoint: mean survival time, dose: 200.0 mg/kg/injection, schedule: Q01DX009 (ip), vehicle: saline with Tween-80
[13] = endpoint: mean survival time, dose: 200.0 mg/kg/injection, schedule: Q04DX003 (ip), vehicle: saline with Tween-80
[14] = endpoint: mean survival time, dose: 400.0 mg/kg/injection, schedule: Q01DX009 (ip), vehicle: saline with Tween-80
[15] = endpoint: mean survival time, dose: 400.0 mg/kg/injection, schedule: Q04DX003 (ip), vehicle: saline with Tween-80
[16] = endpoint: mean survival time, dose: 50.0 mg/kg/injection, schedule: Q04DX003 (ip), vehicle: saline with Tween-80

## O=Cc1c(O)c2ccccc2[nH]c1=O
endpoint: mean survival time, dose: 6.25 mg/kg/injection, schedule: Q01DX009 (ip), vehicle: saline with Tween-80
  T/C: 101 % of control
[1]
  T/C: 103 % of control
[2]
  T/C: 103 % of control
[3]
  T/C: 112 % of control
[4]
  T/C: 106 % of control
endpoint: median survival time, dose: 12.0 mg/kg/injection, schedule: Q01DX009 (ip), vehicle: Klucel (hydroxypropylcellulose) (HPC)
  T/C: 98 % of control
[5]
  T/C: 105 % of control
[6]
  T/C: 113 % of control
[7]
  T/C: 104 % of control

## SCc1ccccc1
[8]
  T/C: 110 % of control
[9]
  T/C: 98 % of control
[10]
  T/C: 105 % of control

## OCCCCSc1ccccc1
endpoint: mean survival time, dose: 75.0 mg/kg/injection, schedule: Q04DX003 (ip), vehicle: saline
  T/C: 98 % of control
endpoint: mean survival time, dose: 150.0 mg/kg/injection, schedule: Q04DX003 (ip), vehicle: saline
  T/C: 98 % of control
endpoint: mean survival time, dose: 300.0 mg/kg/injection, schedule: Q04DX003 (ip), vehicle: saline
  T/C: 91 % of control

## N#CCCCN=[N+]=[N-]
endpoint: mean survival time, dose: 75.0 mg/kg/injection, schedule: Q01DX001 (ip), vehicle: saline
  T/C: 96 % of control
endpoint: mean survival time, dose: 150.0 mg/kg/injection, schedule: Q01DX001 (ip), vehicle: saline
  T/C: 101 % of control

## CC1C2CC3C(OC(=O)C13)C2I (stereo unspecified)
[4]
  T/C: 95 % of control
[11]
  T/C: 95 % of control
[12]
  T/C: 86 % of control
[13]
  T/C: 89 % of control
[14]
  T/C: 92 % of control
[15]
  T/C: 87 % of control

## [Pt+4].[c-]1ccccc1C1CCCC[N-]1.[c-]1ccccc1C1CCCC[N-]1 (stereo unspecified)
endpoint: median survival time, dose: 3.12 mg/kg/injection, schedule: Q04DX003 (ip), vehicle: saline
  T/C: 107 % of control
endpoint: median survival time, dose: 6.25 mg/kg/injection, schedule: Q04DX003 (ip), vehicle: saline
  T/C: 107 % of control
endpoint: median survival time, dose: 12.5 mg/kg/injection, schedule: Q04DX003 (ip), vehicle: saline
  T/C: 103 % of control
endpoint: median survival time, dose: 25.0 mg/kg/injection, schedule: Q04DX003 (ip), vehicle: saline
  T/C: 103 % of control
endpoint: median survival time, dose: 50.0 mg/kg/injection, schedule: Q04DX003 (ip), vehicle: saline
  T/C: 107 % of control
endpoint: median survival time, dose: 100.0 mg/kg/injection, schedule: Q04DX003 (ip), vehicle: saline
  T/C: 103 % of control
endpoint: median survival time, dose: 200.0 mg/kg/injection, schedule: Q04DX003 (ip), vehicle: saline
  T/C: 103 % of control

## COc1ccc(NC(=O)Nc2cc(Cl)ccc2Cl)cc1
[12]
  T/C: 88 % of control
[14]
  T/C: 100 % of control

## Oc1c(Cl)cc(Cl)cc1C=NCCSc1ccc(Cl)cc1
[5]
  T/C: 112 % of control
[6]
  T/C: 101 % of control
[7]
  T/C: 97 % of control
endpoint: median survival time, dose: 200.0 mg/kg/injection, schedule: Q01DX009 (ip), vehicle: Klucel (hydroxypropylcellulose) (HPC)
  T/C: 100 % of control

## Cc1c(N)ccc(O)c1C
[1]
  T/C: 98 % of control
[2]
  T/C: 97 % of control
[3]
  T/C: 92 % of control

## COc1ccc(/C=C(\C#N)c2ccc(C)cc2)cc1OC
[4]
  T/C: 101 % of control
[12]
  T/C: 108 % of control
[14]
  T/C: 107 % of control

## O=C(OCCO)c1oc2ccccc2c1OCCO
[8]
  T/C: 98 % of control
[9]
  T/C: 98 % of control
[10]
  T/C: 102 % of control

## CCCCCCCCCCCCCCCCCCNC(=O)Nc1ccc(C)cc1C
endpoint: mean survival time, dose: 100.0 mg/kg/injection, schedule: Q01DX009 (ip), vehicle: saline + alcohol
  T/C: 98 % of control
endpoint: mean survival time, dose: 100.0 mg/kg/injection, schedule: Q04DX003 (ip), vehicle: saline + alcohol
  T/C: 89 % of control
endpoint: mean survival time, dose: 200.0 mg/kg/injection, schedule: Q01DX009 (ip), vehicle: saline + alcohol
  T/C: 104 % of control
endpoint: mean survival time, dose: 200.0 mg/kg/injection, schedule: Q04DX003 (ip), vehicle: saline + alcohol
  T/C: 100 % of control
endpoint: mean survival time, dose: 400.0 mg/kg/injection, schedule: Q01DX009 (ip), vehicle: saline + alcohol
  T/C: 107 % of control
endpoint: mean survival time, dose: 400.0 mg/kg/injection, schedule: Q04DX003 (ip), vehicle: saline + alcohol
  T/C: 89 % of control

## CCOC(=O)C=C1CCN(C)CC1
endpoint: mean survival time, dose: 50.0 mg/kg/injection, schedule: Q04DX003 (ip), vehicle: saline
  T/C: 94 % of control
endpoint: mean survival time, dose: 100.0 mg/kg/injection, schedule: Q04DX003 (ip), vehicle: saline
  T/C: 97 % of control
endpoint: mean survival time, dose: 200.0 mg/kg/injection, schedule: Q04DX003 (ip), vehicle: saline
  T/C: 97 % of control

## CC(C)[S-].CC(C)[S-].[Pt+2].c1ccc([PH+](c2ccccc2)c2ccccc2)cc1.c1ccc([PH+](c2ccccc2)c2ccccc2)cc1
endpoint: mean survival time, dose: 3.13 mg/kg/injection, schedule: Q04DX003 (sc), vehicle: distilled water + Tween-80
  T/C: 96 % of control
endpoint: mean survival time, dose: 6.25 mg/kg/injection, schedule: Q04DX003 (sc), vehicle: distilled water + Tween-80
  T/C: 100 % of control
endpoint: mean survival time, dose: 12.5 mg/kg/injection, schedule: Q04DX003 (sc), vehicle: distilled water + Tween-80
  T/C: 92 % of control
endpoint: mean survival time, dose: 50.0 mg/kg/injection, schedule: Q04DX003 (sc), vehicle: distilled water + Tween-80
  T/C: 87 % of control
endpoint: mean survival time, dose: 200.0 mg/kg/injection, schedule: Q04DX003 (sc), vehicle: distilled water + Tween-80
  T/C: 89 % of control

## O=S(=O)(c1ccc(N2CCOCC2)cc1)c1ccnc2cc(Cl)ccc12
[8]
  T/C: 93 % of control
[4]
  T/C: 89 % of control
[9]
  T/C: 101 % of control
[10]
  T/C: 87 % of control

## O=[N+]([O-])c1ccc(O/N=C(\CN2CCCC2)c2ccc(Cl)cc2)c([N+](=O)[O-])c1
endpoint: mean survival time, dose: 100.0 mg/kg/injection, schedule: Q01DX001 (ip), vehicle: Klucel (hydroxypropylcellulose) (HPC)
  T/C: 90 % of control
endpoint: mean survival time, dose: 200.0 mg/kg/injection, schedule: Q01DX001 (ip), vehicle: Klucel (hydroxypropylcellulose) (HPC)
  T/C: 87 % of control
endpoint: mean survival time, dose: 400.0 mg/kg/injection, schedule: Q01DX001 (ip), vehicle: Klucel (hydroxypropylcellulose) (HPC)
  T/C: 98 % of control

## C=CCN(C)N=Nc1ccc(C(N)=O)cc1
endpoint: mean survival time, dose: 18.75 mg/kg/injection, schedule: Q01DX009 (ip), vehicle: Klucel (hydroxypropylcellulose) (HPC)
  T/C: 106 % of control
endpoint: mean survival time, dose: 37.5 mg/kg/injection, schedule: Q01DX009 (ip), vehicle: Klucel (hydroxypropylcellulose) (HPC)
  T/C: 115 % of control
endpoint: mean survival time, dose: 150.0 mg/kg/injection, schedule: Q01DX009 (ip), vehicle: Klucel (hydroxypropylcellulose) (HPC)
  T/C: 156 % of control
endpoint: mean survival time, dose: 300.0 mg/kg/injection, schedule: Q01DX009 (ip), vehicle: Klucel (hydroxypropylcellulose) (HPC)
  T/C: 92 % of control

## O=C(O)C(O)C(O)C(O)C(O)CO.[Mn] (stereo unspecified)
[3]
  T/C: 106 % of control
[16]
  T/C: 100 % of control
[4]
  T/C: 107 % of control
[11]
  T/C: 102 % of control
[12]
  T/C: 118 % of control
[13]
  T/C: 104 % of control

## O=C(/C(=N\Nc1ccc([N+](=O)[O-])cc1)c1ccccc1)c1ccccc1
[1]
  T/C: 96 % of control
[2]
  T/C: 88 % of control
[3]
  T/C: 88 % of control
[11]
  T/C: 97 % of control
[13]
  T/C: 97 % of control
[15]
  T/C: 101 % of control

## CCCCCn1c(Cl)c(/C=N/NC(N)=S)c2ccccc21
endpoint: mean survival time, dose: 25.0 mg/kg/injection, schedule: Q04DX003 (ip), vehicle: saline with Tween-80
  T/C: 102 % of control
[16]
  T/C: 93 % of control
[11]
  T/C: 96 % of control

## CN(C)CC#N
endpoint: mean survival time, dose: 5.0 mg/kg/injection, schedule: Q01DX009 (ip), vehicle: saline sonified
  T/C: 97 % of control
endpoint: mean survival time, dose: 5.0 mg/kg/injection, schedule: Q04DX003 (ip), vehicle: saline
  T/C: 103 % of control
endpoint: mean survival time, dose: 10.0 mg/kg/injection, schedule: Q01DX009 (ip), vehicle: saline sonified
  T/C: 97 % of control
endpoint: mean survival time, dose: 10.0 mg/kg/injection, schedule: Q04DX003 (ip), vehicle: saline
  T/C: 97 % of control
endpoint: mean survival time, dose: 20.0 mg/kg/injection, schedule: Q01DX009 (ip), vehicle: saline sonified
  T/C: 98 % of control
endpoint: mean survival time, dose: 20.0 mg/kg/injection, schedule: Q04DX003 (ip), vehicle: saline
  T/C: 95 % of control

## C[CH2][Sn]1([CH2]C)[O]C2C(CO)OC(n3ccc(N)nc3=O)C2[O]1 (stereo unspecified)
endpoint: mean survival time, dose: 1.56 mg/kg/injection, schedule: Q01DX005 (ip), vehicle: water
  T/C: 97 % of control
endpoint: mean survival time, dose: 3.13 mg/kg/injection, schedule: Q01DX005 (ip), vehicle: water
  T/C: 111 % of control
endpoint: mean survival time, dose: 6.25 mg/kg/injection, schedule: Q01DX005 (ip), vehicle: water
  T/C: 100 % of control
endpoint: mean survival time, dose: 12.5 mg/kg/injection, schedule: Q01DX005 (ip), vehicle: other
  T/C: 103 % of control
endpoint: mean survival time, dose: 12.5 mg/kg/injection, schedule: Q01DX005 (ip), vehicle: water
  T/C: 105 % of control
